According to ChEMBL document CHEMBL1201862, “PubChem BioAssay data set” (2004):
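Following 48 hours of exposure in 96-well plates, responses at five concentrations were used to interpolate endpoints linearly. GI50 = concentration required for 50% inhibition of growth.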 The source made the active and inactive calls. Rule as the data show it: active = GI50 up to about 1.1 µM and inactive = higher.

Tests used:
Assay in all cases: NCI-60 cell line screen, 48 h
LXFL 529 = tested on: LXFL 529
MCF7 = tested on: MCF7
KM-20L2 = tested on: KM-20L2
HOP-18 = tested on: HOP-18
DMS-273 = tested on: DMS-273
Hs-578T = tested on: Hs-578T
BT-549 = tested on: BT-549
HOP-92 = tested on: HOP-92

How did the GI50 (LXFL 529) turn out when `O=S(O)c1cc(Cl)c(O)c(Cl)c1` was run?
The GI50 was > 100 µM (inactive).

For `Nc1ccc(OCC(O)N2C(=O)c3ccccc3C2=O)cc1` (stereo not given), which GI50 (MCF7) is on record?
The GI50 was > 100 µM (inactive).

`COc1ccc(/C(C=O)=C(\Cl)c2ccc(OC)c(OC)c2)cc1` was tested. Which GI50 (KM-20L2) did it give?
The GI50 was > 100 µM (inactive).

What about the GI50 (HOP-18) of the same compound?
The GI50 was > 100 µM (inactive).

What about the GI50 (DMS-273) of the same compound?
Its GI50 is 49.2 µM (inactive).

What about the GI50 (LXFL 529) of the same compound?
Its GI50 is > 100 µM (inactive).

What does the source list for `O=C1/C(=C/c2ccc(Cl)cc2)N=C(c2ccccc2)N1/N=C/c1ccccc1O`?
GI50 (Hs-578T): 36.4 µM (inactive); GI50 (MCF7): 13.9 µM (inactive); GI50 (BT-549): 16.4 µM (inactive); GI50 (HOP-92): 11.5 µM (inactive)
